Laboratory results reported in patent US20200037609A1, “HERBICIDAL COMPOSITIONS AND METHODS OF USE THEREOF” (The Regents of the University of California, priority 2017, published 2020).
Entries after “also recorded” stand apart in the source; their conditions may differ. Read-outs that look alike come from different tables or passages of the source.

What was measured:
[1] = tested on: Streptomyces sp. Mg1; assay: Streptomyces growth inhibition assay; format: cell-based; conditions: 250 μM aspterric acid
Experimental: Streptomyces sp. Mg1 was plated onto MS media either with or without 250 μM aspterric acid. Plates were incubated at 28° C.

[2] = tested on: S. cerevisiae ΔILV3 expressing AstD; assay: Growth inhibition of S. cerevisiae ΔILV3 in ILV dropout media; format: cell-based; conditions: Saccharomyces cerevisiae, read-out: IC50 of growth inhibition, yeast expressing AstD
Experimental: (§1) Growth inhibition assay of S. cerevisiae on plates or in the tubes. S. cerevisiae was grown in isoleucine, leucine and valine (ILV) dropout media (20 g/L glucose, 0.67 g/L Difco™ Yeast Nitrogen Base w/o amino acids, 18 mg/L adenine, arginine 76 mg/L, asparagine 76 mg/L, aspartic acid 76 mg/L, glutamic acid 76 mg/L, histidine 76 mg/L, lysine 76 mg/L, methionine 76 mg/L, phenylalanine 76 mg/L, serine 76 mg/L, threonine 76 mg/L, tryptophan 76 mg/L, tyrosine 76 mg/L) to test growth inhibition of AA on S. cerevisiae. S. cerevisiae was incubated at 28° C. until OD600 of the control strain without AA treatment reached about 0.8. The ratio of yeast OD600 in media with AA treatment to yeast OD600 in media without AA was calculated as the percentage of growth inhibition. The inhibition curve was plotted as percentage of inhibition versus AA concentrations. […] The growth curves of TY05, TY06 and TY07 were also plotted (FIG. 29A-29D). The OD600 was recorded for every 20 minutes over a total of 50 h. The inhibition percentage can be calculated by following equation: […]

[3] = tested on: tomato seedlings (Solanum lycopersicum); assay: Agar-based plant growth inhibition assay on MS media; format: in vivo; conditions: 50 μM aspterric acid
Experimental: Sterile tomato seedlings were plated on MS media containing 50 μM aspterric acid and 1% DMSO (to increase the solubility of aspterric acid) or on MS media containing 50 μM glyphosate on day 0. MS media containing only 1% DMSO was used as a control. Growth was assessed on day 3 and day 7.
(§2) Growth inhibition assay of plants on plates or in the tubes. MS (2.16 g/L Murashige and Skoog basal medium, 8 g/L sucrose, 8 g/L agar) media was used to test the growth inhibition of AA on A. thaliana, Solanum lycopersicum, and Zea mays. A. thaliana, S. lycopersicum, G. max and Z. mays were grown under long day condition (16/8 h light/dark) using cool-white fluorescence bulbs as the light resource at 23° C. AA was dissolved in ethanol and added to the media before inoculating strains or growing plants. The media of control treatment contains the same amount of ethanol, but without AA.

[4] = tested on: pollen development in Arabidopsis thaliana; assay: Pollen development in AA treated plants; format: in vivo; conditions: treated before flowering; listed as AA
[5] = tested on: pollen development in Arabidopsis thaliana; conditions: literature, cited from earlier work
[6] = tested on: Saccharomyces cerevisiae; assay: Yeast growth inhibition assay on plates; format: cell-based; conditions: 250 μM aspterric acid
Experimental: Saccharomyces cerevisiae was plated onto dropout media that lacked isoleucine, leucine, and valine, either with or without 250 μM aspterric acid. Saccharomyces cerevisiae was also plated onto rich media that contained all amino acids along with 250 μM aspterric acid. Plates were incubated at 30° C.

[7] = tested on: Zea mays; assay: Plant growth inhibition assay on MS media; format: in vivo; conditions: 50 μM AA
Experimental: as §2

[8] = tested on: astD transgene-expressing A. thaliana; assay: AA resistance of astD transgenic plants (media and spray); format: in vivo, Arabidopsis thaliana
Experimental: as §2
Plant growth inhibition assay by spraying. AA was firstly dissolved in ethanol and then added to solvent (0.06 g/L Finale® Bayer Inc.+20 g/L EtOH). The control plants were treated with solvent containing ethanol only. A. thaliana that are resistant to glufosinate (containing the bar gene) were grown under long day conditions (16/8 h light/dark) using cool-white fluorescence bulbs as the light resource at 23° C. Spraying treatments began when the seeds germinated, and was repeated once every two days with approximately 0.4 mL AA solution per time per pot.
The coding sequence of AstD was codon optimized for A. thaliana. A chloroplast localization signal (CLS) of 35-amino acid residues derived from the N-terminal of A. thaliana DHAD (SEQ ID NO: 19) was fused to N-terminus of the codon optimized AstD. […]

[9] = tested on: S. cerevisiae ΔILV3 expressing fDHAD; assay: Growth inhibition of S. cerevisiae ΔILV3 in ILV dropout media; format: cell-based, Saccharomyces cerevisiae
Experimental: as §1

CC(C)=C1CC[C@]23CO[C@H](C2)[C@@](O)(C(=O)O)CC[C@@H]13 [aspterric acid]
growth of Streptomyces on MS media [1]: inhibited the growth | IC50 [2]: ~200 µM | growth of tomato (Solanum lycopersicum) on MS media [3]: significant vegetative growth inhibition | growth of tomato (Solanum lycopersicum) on MS media ([3]; listed as AA): effective inhibitor of root development and plant growth | pollen formation in AA treated A. thaliana [4]: failed to form normal pollen; also recorded: depleted of healthy and mature pollen | inhibition of pollen development in A. thaliana (previously reported) [5]: inhibit pollen development | inhibition of pollen development in A. thaliana (previously reported) ([5]; listed as AA): inhibitory activity towards pollen development | growth of S. cerevisiae on media lacking isoleucine, leucine and valine [6]: inhibited the growth | growth of S. cerevisiae on rich media ([6]; all amino acids present): grew normally | root development and plant growth of Zea mays on MS media [7]: effective inhibitor of root development and plant growth | growth of astD transgenic plants on media ([8]; 100 μM AA): relatively unaffected | growth of T2 astD transgenic plants after spray ([8]; 250 μM AA + glufosinate ammonium): no observable growth defects | IC50 ([9]; Saccharomyces cerevisiae, ILV dropout media, read-out: IC50 of growth inhibition, yeast expressing fDHAD): ~2 µM | sensitivity to AA of yeast expressing fDHAD compared to yeast expressing AstD ([9]; ratio of IC50): approximately 100 times
